# Test system: IL-12
# Experiment: Human in vitro assay: inhibition of IL-12 production in stimulated human PBMC or THP-1 cells (ELISA)
# Type: cell-based
# Details: read-out: IC50 Range (in vitro IC50 for IL-12)
# Source text: The biological activities of a compound of the invention can be evaluated by a number of cell-based assays. One of such assays can be conducted using cells from human peripheral blood mononuclear cells (PBMC) or human monocytic cell line (THP-1). The cells are stimulated with a combination of human interferon-γ (IFNγ) and lipopolysaccharide or a combination of IFNγ and Staphylococcus aureus Cowan I in the presence of a test compound. The level of inhibition of IL-12 production can be measured by determining the amount of p70 by using a sandwich ELISA assay with anti-human IL-12 antibodies. IC50 of the test compound can then be determined. Specifically, PBMC or THP-1 cells are incubated with the test compound. Cell viability was assessed using the bioreduction of MTS [3-(4,5-dimethylthiazol-2-yl)-5-(3-carboxymethoxyphenyl)-2-(4-sulfophenyl)-2H-tetrazolium] (Promega, Madison, Wis.).
# 8. Reagents. Staphylococcus aureus Cowan I (SAC) was obtained from Calbiochem (La Jolla, Calif.), and lipopolysaccharide (LPS, Serratia marscencens) was obtained from Sigma (St. Louis, Mo.). Human and mouse recombinant IFNγ were purchased from Boehringer Mannheim (Mannheim, Germany) and Pharmingen (San Diego, Calif.), respectively.
# 9. Human In Vitro Assay. Human PBMC were isolated by centrifugation using Ficoll-Paque (Pharmacia Biotech, Uppsala, Sweden) and prepared in RPMI medium supplemented with 10% fetal calf serum (FCS), 100 U/mL penicillin, and 100 μg/mL streptomycin. PBMC were plated in wells of a 96-well plate at a concentration of 5×10^5 cells/well, and primed by adding IFNγ (30 U/mL) for 22 h and stimulated by adding LPS (1 μg/mL), or by adding IFNγ (100 U/mL) and then stimulated by adding SAC (0.01%). A test pyrimidine compound was dissolved in DMSO, and added to wells of the 96-well plate. The final DMSO concentration was adjusted to 0.25% in all cultures, including the compound-free control. Human THP-1 cells were plated in wells, primed by adding IFNγ (100 U/mL) for 22 h and stimulated by adding SAC (0.025%) in the presence of different concentrations of the pyrimidine compound. Cell-free supernatants were taken 18 h later for measurement of cytokines. Cell viability was assessed using the bioreduction of MTS. Cell survival was estimated by determining the ratio of the absorbance in compound-treated groups versus compound-free control.
# 10. The supernatant was assayed for the amount of […], IL-12p70, or IL-10 by using a sandwich ELISA with anti-human antibodies, i.e., a Human IL-12 p40 ELISA kit from R&D Systems (Berkeley, Calif.), and a Human IL-12 p70 or IL-10 ELISA kit from Endogen (Cambridge, Mass.). Assays were based on the manufacturer's instructions.
# The biological activities of compounds of the invention were tested on human PBMC or THP-1 cells.
row,SMILES,IC50 [nM]
1,"Cc1ccc2c(c1)/C(=N/Nc1cc(N3CCOCC3)nc(OCCN3CCOCC3)n1)C(=O)N2 [Compound 1, 5-methyl-3-{[6-morpholin-4-yl-2-(2-morpholin-4-yl-ethoxy)-pyrimidin-4-yl]-hydrazono}-1,3-dihydro-indol-2-one]",< 1000
2,"Cc1ccc2c(c1)/C(=N/Nc1cc(N3CCOCC3)nc(OCCN3CCOCC3)n1)CCO2 [Compound 2, N-(6-Methyl-chroman-4-ylidene)-N′-[6-morpholin-4-yl-2-(2-morpholin-4-yl-ethoxy)-pyrimidin-4-yl]-hydrazine]",< 1000
3,"Cc1ccc2c(c1)/C(=N/Nc1cc(N3CCOCC3)nc(OCCN3CCOCC3)n1)CC2 [Compound 3, N-(6-Methyl-indan-1-ylidene)-N′-[6-morpholin-4-yl-2-(2-morpholin-4-yl-ethoxy)-pyrimidin-4-yl]-hydrazine]",< 1000
4,"c1ccc2c(c1)CC/C2=N\Nc1cc(N2CCOCC2)nc(OCCN2CCOCC2)n1 [Compound 4, N-(Indan-1-ylidene)-N′-[6-morpholin-4-yl-2-(2-morpholin-4-yl-ethoxy)-pyrimidin-4-yl]-hydrazine]",≥ 1000
5,"c1ccc2c(c1)OC/C2=N\Nc1cc(N2CCOCC2)nc(OCCN2CCOCC2)n1 [Compound 5, N-(Benzofuran-3-ylidene)-N′-[6-morpholin-4-yl-2-(2-morpholin-4-yl-ethoxy)-pyrimidin-4-yl]-hydrazine]",≥ 1000
6,"CC1C/C(=N/Nc2cc(N3CCOCC3)nc(OCCN3CCOCC3)n2)c2ccccc21 (stereo not drawn) [Compound 6, N-(3-Methyl-indan-1-ylidene)-N′-[6-morpholin-4-yl-2-(2-morpholin-4-yl-ethoxy)-pyrimidin-4-yl]-hydrazine]",≥ 1000
7,"Cc1cccc2c1CC/C2=N\Nc1cc(N2CCOCC2)nc(OCCN2CCOCC2)n1 [Compound 7, N-(4-Methyl-indan-1-ylidene)-N′-[6-morpholin-4-yl-2-(2-morpholin-4-yl-ethoxy)-pyrimidin-4-yl]-hydrazine]",≥ 1000
8,"COc1ccc2c(c1)CC/C2=N\Nc1cc(N2CCOCC2)nc(OCCN2CCOCC2)n1 [Compound 8, N-(5-Methoxy-indan-1-ylidene)-N′-[6-morpholin-4-yl-2-(2-morpholin-4-yl-ethoxy)-pyrimidin-4-yl]-hydrazine]",≥ 1000
9,"c1ccc2c(c1)CC(=NNc1cc(N3CCOCC3)nc(OCCN3CCOCC3)n1)C2 [Compound 10, N-(Indan-2-ylidene)-N′-[6-morpholin-4-yl-2-(2-morpholin-4-yl-ethoxy)-pyrimidin-4-yl]-hydrazine]",≥ 1000
10,"c1ccc2c(c1)CCC/C2=N\Nc1cc(N2CCOCC2)nc(OCCN2CCOCC2)n1 [Compound 11, N-(3,4-Dihydro-2H-naphthalen-1-ylidene)-N′-[6-morpholin-4-yl-2-(2-morpholin-4-yl-ethoxy)-pyrimidin-4-yl]-hydrazine]",≥ 1000
11,"c1ccc2c(c1)OCC/C2=N\Nc1cc(N2CCOCC2)nc(OCCN2CCOCC2)n1 [Compound 12, N-(Chroman-4-ylidene)-N′-[6-morpholin-4-yl-2-(2-morpholin-4-yl-ethoxy)-pyrimidin-4-yl]-hydrazine]",≥ 1000
12,"COc1ccc2c(c1)CCC/C2=N\Nc1cc(N2CCOCC2)nc(OCCN2CCOCC2)n1 [Compound 13, N-(6-Methoxy-3,4-dihydro-2H-naphthalen-1-ylidene)-N′-[6-morpholin-4-yl-2-(2-morpholin-4-yl-ethoxy)-pyrimidin-4-yl]-hydrazine]",< 1000
13,"COc1ccc2c(c1)/C(=N/Nc1cc(N3CCOCC3)nc(OCCN3CCOCC3)n1)CCC2 [Compound 14, N-(7-Methoxy-3,4-dihydro-2H-naphthalen-1-ylidene)-N′-[6-morpholin-4-yl-2-(2-morpholin-4-yl-ethoxy)-pyrimidin-4-yl]-hydrazine]",< 1000
14,"O=[N+]([O-])c1ccc2c(c1)/C(=N/Nc1cc(N3CCOCC3)nc(OCCN3CCOCC3)n1)CCC2 [Compound 15, N-(7-Nitro-3,4-dihydro-2H-naphthalen-1-ylidene)-N′-[6-morpholin-4-yl-2-(2-morpholin-4-yl-ethoxy)-pyrimidin-4-yl]-hydrazine]",< 1000
15,"Oc1ccc2c(c1)CCC/C2=N\Nc1cc(N2CCOCC2)nc(OCCN2CCOCC2)n1 [Compound 16, N-(6-Hydroxy-3,4-dihydro-2H-naphthalen-1-ylidene)-N′-[6-morpholin-4-yl-2-(2-morpholin-4-yl-ethoxy)-pyrimidin-4-yl]-hydrazine]",< 1000
16,"Cc1cc(C)c2c(c1)/C(=N/Nc1cc(N3CCOCC3)nc(OCCN3CCOCC3)n1)CCC2 [Compound 17, N-(5,7-Dimethyl-3,4-dihydro-2H-naphthalen-1-ylidene)-N′-[6-morpholin-4-yl-2-(2-morpholin-4-yl-ethoxy)-pyrimidin-4-yl]-hydrazine]",< 1000
17,"CC1CC/C(=N\Nc2cc(N3CCOCC3)nc(OCCN3CCOCC3)n2)c2ccccc21 (stereo not drawn) [Compound 19, N-(4-Methyl-3,4-dihydro-2H-naphthalen-1-ylidene)-N′-[6-morpholin-4-yl-2-(2-morpholin-4-yl-ethoxy)-pyrimidin-4-yl]-hydrazine]",≥ 1000
18,"CN1C(=O)/C(=N/Nc2cc(N3CCOCC3)nc(OCCN3CCOCC3)n2)c2ccccc21 [Compound 20, 1-Methyl-3-{[6-morpholin-4-yl-2-(2-morpholin-4-yl-ethoxy)-pyrimidin-4-yl]-hydrazono}-1,3-dihydro-indol-2-one]",≥ 1000
19,"O=C1OCCN1CCOc1nc(N/N=C2\CCCc3cc(O)ccc32)cc(N2CCOCC2)n1 [Compound 22, 3-(2-{4-[N′-(6-Hydroxy-3,4-dihydro-2H-naphthalen-1-ylidene)-hydrazino]-6-morpholin-4-yl-pyrimidin-2-yloxy}-ethyl)-oxazolidin-2-one]",< 1000
20,"CC(C)(O)CCc1nc(N/N=C2\CCCc3cc(O)ccc32)cc(N2CCOCC2)n1 [Compound 24, 5-{[2-(3-Hydroxy-3-methyl-butyl)-6-morpholin-4-yl-pyrimidin-4-yl]-hydrazono}-5,6,7,8-tetrahydro-naphthalen-2-ol]",≥ 1000
21,"Clc1ccc2c(c1)/C(=N/Nc1cc(N3CCOCC3)nc(OCCN3CCOCC3)n1)CCS2 [Compound 37, N-(6-Chloro-thiochroman-4-ylidene)-N′-[6-morpholin-4-yl-2-(2-morpholin-4-yl-ethoxy)-pyrimidin-4-yl]-hydrazine]",< 1000
22,"O=S1(=O)CC/C(=N\Nc2cc(N3CCOCC3)nc(OCCN3CCOCC3)n2)c2cc(Cl)ccc21 [Compound 38, N-(6-Chloro-1,1-dioxo-1λ^6-thiochroman-4-ylidene)-N′-[6-morpholin-4-yl-2-(2-morpholin-4-yl-ethoxy)-pyrimidin-4-yl]-hydrazine]",≥ 1000
23,"Cc1ccc2occ/c(=N\Nc3cc(N4CCOCC4)nc(OCCN4CCOCC4)n3)c2c1 [Compound 39, N-(6-Methyl-chromen-4-ylidene)-N′-[6-morpholin-4-yl-2-(2-morpholin-4-yl-ethoxy)-pyrimidin-4-yl]-hydrazine]",< 1000
24,"c1cc2c(o1)CCC/C2=N\Nc1cc(N2CCOCC2)nc(OCCN2CCOCC2)n1 [Compound 41, N-(6,7-Dihydro-5H-benzofuran-4-ylidene)-N′-[6-morpholin-4-yl-2-(morpholin-4-yl-ethoxy)-pyrimidin-4-yl]-hydrazine]",≥ 1000

# Test system: Adjuvant arthritis (AA) in female Lewis rats
# Experiment: Treatment of adjuvant arthritis in rats
# Type: in vivo, rat
# Details: 20 mg/kg dose, orally once a day for 7 days (day 7-14)
# Experimental: Adjuvant arthritis (AA) was induced in female Lewis rats by the intracutaneous injection (base of the tail) of 0.1 mL of a 10 mg/mL bacterial suspension made from ground, heat-killed Mycobacterium tuberculosis H37Ra suspended in incomplete Freund's adjuvant. Rats were given a test compound orally once a day for 7 days (day 7-14), starting day 7 after mycobacterium induction. The development of polyarthritis was monitored daily by macroscopic inspection and assignment of an arthritis index to each animal, during the critical period (days 10 to 25 post-immunization).
# The intensity of polyarthritis was scored according to the following scheme: (a) Grade each paw from 0 to 3 based on erythema, swelling, and deformity of the joints: 0 for no erythema or swelling; 0.5 if swelling is detectable in at least one joint; 1 for mild swelling and erythema; 2 for swelling and erythema of both tarsus and carpus; and 3 for ankylosis and bony deformity. Maximum score for all 4 paws is thus 12. (b) Grade for other parts of the body: for each ear, 0.5 for redness and another 0.5 if knots are present; 1 for connective tissue swelling (saddle nose); and 1 for the presence of knots or kinks in the tail. The highest possible arthritic index is 16.
# Experiments with the AA model were repeated four times. […] The arthritis score used in this model is a reflection of the inflammatory state of the structures monitored and the results therefore show the ability of the test compound to provide relief for this aspect of the pathology.
row,SMILES,percent reduction in arthritic score [% reduction]
1,"Cc1ccc2c(c1)/C(=N/Nc1cc(N3CCOCC3)nc(OCCN3CCOCC3)n1)CCO2 [Compound 2, N-(6-Methyl-chroman-4-ylidene)-N′-[6-morpholin-4-yl-2-(2-morpholin-4-yl-ethoxy)-pyrimidin-4-yl]-hydrazine]",21
2,"Cc1ccc2c(c1)/C(=N/Nc1cc(N3CCOCC3)nc(OCCN3CCOCC3)n1)CC2 [Compound 3, N-(6-Methyl-indan-1-ylidene)-N′-[6-morpholin-4-yl-2-(2-morpholin-4-yl-ethoxy)-pyrimidin-4-yl]-hydrazine]",25

# Same assay, conditions: 50 mg/kg dose, orally once a day for 7 days (day 7-14)
row,SMILES,percent reduction in arthritic score [% reduction]
1,"Cc1ccc2c(c1)/C(=N/Nc1cc(N3CCOCC3)nc(OCCN3CCOCC3)n1)CCO2 [Compound 2, N-(6-Methyl-chroman-4-ylidene)-N′-[6-morpholin-4-yl-2-(2-morpholin-4-yl-ethoxy)-pyrimidin-4-yl]-hydrazine]",32

# From patent US20060281711A1, “IL-12 modulatory compounds” (Synta Pharmaceuticals Corp., priority 2005, published 2006)
